Tests used:
Experiment in all cases: Radiometric protein kinase assay (33PanQinase), Assay Condition A (thiol containing)
Type in all cases: biochemical
[1] = target: CDK7/CycH/MAT1 (Homo sapiens (Human), UniProt P50613); details: thiol containing (1.2 mM DTT), ATP 3.0 μM
Experimental: (§1) The IC50 profile of test compounds was determined using three protein kinases.
(§2) The compounds were provided as pre-weighed powders in vials. The compounds were dissolved to 1×10^−02M by adding DMSO. 100 μl of each of the resulting stock solutions were transferred into column 2 of four 96 well “master plates”.
(§3) Prior to testing, the 1×10^−02M stock solutions in column 2 of the master plates were subjected to a serial, semi-logarithmic dilution using 100% DMSO as a solvent. […] Column 1 and 7 were filled with 100% DMSO as controls. Subsequently, 2×10 μl from each well of the serial diluted copy plates were aliquoted with a 96 channel pipettor into two identical sets of “compound dilution plates”.
(§4) In the process, 90 μl H2O were added to each well of a set of compound dilution plates. To minimize potential precipitation, the H2O was added to each plate only a few minutes before the transfer of the compound solutions into the assay plates. Each plate was shaken thoroughly, resulting in a “compound dilution plate/10% DMSO”.
(§5) For the assays, 5 μl solution from each well of the compound dilution plates/10% DMSO were transferred into the assay plates. The final volume of the assay was 50 μl. All compounds were tested at 10 final assay concentrations in the range from 1×10^−04M to 3×10^−09M, in singlicate. The final DMSO concentration in the reaction cocktails was 1% in all cases.
(§6) All protein kinases were expressed in Sf9 insect cells or in E. coli as recombinant GST-fusion proteins or His-tagged proteins, either as full-length or enzymatically active fragments. All kinases were produced from human cDNAs and purified by either GSH-affinity chromatography or immobilized metal. Affinity tags were removed from a number of kinases during purification. The purity of the protein kinases was examined by SDS-PAGE/Coomassie staining, the identity was checked by mass spectroscopy.
(§7) A radiometric protein kinase assay (^33PanQinase® Activity Assay) was used for measuring the kinase activity of the three protein kinases. All kinase assays were performed in 96-well FlashPlates™ from PerkinElmer (Boston, Mass., USA) in a 50 μl reaction volume. The reaction cocktail was pipetted in four steps in the following order: • 20 μl of assay buffer (standard buffer) • 5 μl of ATP solution (in H2O) • 5 μl of test compound (in 10% DMSO) • 20 μl enzyme/substrate mix
(§8) The reaction cocktails were incubated at 30° C. for 60 minutes. The reaction was stopped with 50 μl of 2% (v/v) H3PO4, plates were aspirated and washed two times with 200 μl 0.9% (w/v) NaCl. Incorporation of ^33Pi was determined with a microplate scintillation counter (Microbeta, Wallac). All assays were performed with a BeckmanCoulter/SAGIAN™ Core System.
(§9) The median value of the counts in column 1 (n=8) of each assay plate was defined as “low control”. This value reflects unspecific binding of radioactivity to the plate in the absence of a protein kinase but in the presence of the substrate. The median value of the counts in column 7 of each assay plate (n=8) was taken as the “high control”, i.e. full activity in the absence of any inhibitor. The difference between high and low control was taken as 100% activity.
(§10) As part of the data evaluation the low control value from a particular plate was subtracted from the high control value as well as from all 80 “compound values” of the corresponding plate. The residual activity (in %) for each well of a particular plate was calculated by using the following formula: Res. Activity (%)=100×[(cpm of compound−low control)/(high control−low control)]
(§11) The residual activities for each concentration and the compound IC50 values were calculated using Quattro Workflow V3.1.1 (Quattro Research GmbH, Munich, Germany). […] The fitting method used was a least-squares fit.

[2] = target: CDK12 wt/CycK (Homo sapiens (Human), UniProt Q9NYV4); details: thiol containing (1.2 mM DTT), ATP 0.3 μM
Experimental: as §1, §2, §3, §4, §5, §6, §7, §8, §9, §10, §11

[3] = target: CDK2/CycA2 (Homo sapiens (Human), UniProt P24941); details: thiol containing (1.2 mM DTT), ATP 0.3 μM
Experimental: as §1, §2, §3, §4, §5, §6, §7, §8, §9, §10, §11

CDK12 wt/CycK, sequence (Q9NYV4 whole entry): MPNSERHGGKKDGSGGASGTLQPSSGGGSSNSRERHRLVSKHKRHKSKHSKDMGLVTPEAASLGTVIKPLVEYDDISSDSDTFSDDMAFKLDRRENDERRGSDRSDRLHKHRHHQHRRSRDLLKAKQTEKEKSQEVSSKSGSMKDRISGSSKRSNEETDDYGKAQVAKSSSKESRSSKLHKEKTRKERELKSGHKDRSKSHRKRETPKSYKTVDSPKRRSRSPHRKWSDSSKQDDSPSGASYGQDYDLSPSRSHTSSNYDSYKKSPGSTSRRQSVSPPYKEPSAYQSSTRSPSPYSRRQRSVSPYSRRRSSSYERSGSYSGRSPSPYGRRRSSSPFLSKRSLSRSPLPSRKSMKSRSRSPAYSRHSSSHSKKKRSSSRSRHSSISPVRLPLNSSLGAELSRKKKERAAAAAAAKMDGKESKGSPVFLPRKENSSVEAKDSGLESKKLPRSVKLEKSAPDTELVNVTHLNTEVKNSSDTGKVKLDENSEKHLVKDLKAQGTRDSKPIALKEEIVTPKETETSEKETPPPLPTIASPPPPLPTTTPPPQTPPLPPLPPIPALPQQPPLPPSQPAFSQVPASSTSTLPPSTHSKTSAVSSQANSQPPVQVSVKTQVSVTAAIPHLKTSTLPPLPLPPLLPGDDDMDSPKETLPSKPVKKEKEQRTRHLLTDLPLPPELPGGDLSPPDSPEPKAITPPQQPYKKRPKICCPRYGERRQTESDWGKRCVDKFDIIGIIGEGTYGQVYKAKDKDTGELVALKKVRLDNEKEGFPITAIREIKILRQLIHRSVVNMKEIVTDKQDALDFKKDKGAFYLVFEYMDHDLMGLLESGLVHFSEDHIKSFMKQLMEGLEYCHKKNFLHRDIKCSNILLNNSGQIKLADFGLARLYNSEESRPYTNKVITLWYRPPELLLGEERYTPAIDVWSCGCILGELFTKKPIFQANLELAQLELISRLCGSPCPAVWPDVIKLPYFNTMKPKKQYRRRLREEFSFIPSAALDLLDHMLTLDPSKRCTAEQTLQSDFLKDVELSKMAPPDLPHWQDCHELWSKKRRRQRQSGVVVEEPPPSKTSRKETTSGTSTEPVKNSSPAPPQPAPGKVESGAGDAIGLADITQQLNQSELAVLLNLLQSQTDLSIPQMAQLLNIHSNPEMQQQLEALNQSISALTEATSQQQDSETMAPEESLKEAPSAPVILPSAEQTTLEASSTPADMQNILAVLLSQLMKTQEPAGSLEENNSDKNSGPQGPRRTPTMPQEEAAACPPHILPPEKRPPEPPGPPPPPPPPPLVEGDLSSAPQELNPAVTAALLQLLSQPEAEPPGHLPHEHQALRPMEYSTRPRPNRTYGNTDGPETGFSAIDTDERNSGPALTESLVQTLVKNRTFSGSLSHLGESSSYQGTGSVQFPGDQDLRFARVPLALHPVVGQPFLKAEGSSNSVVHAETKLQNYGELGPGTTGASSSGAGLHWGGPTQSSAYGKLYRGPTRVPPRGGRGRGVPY
CDK12 wt/CycK, sequence (O75909 whole entry partner): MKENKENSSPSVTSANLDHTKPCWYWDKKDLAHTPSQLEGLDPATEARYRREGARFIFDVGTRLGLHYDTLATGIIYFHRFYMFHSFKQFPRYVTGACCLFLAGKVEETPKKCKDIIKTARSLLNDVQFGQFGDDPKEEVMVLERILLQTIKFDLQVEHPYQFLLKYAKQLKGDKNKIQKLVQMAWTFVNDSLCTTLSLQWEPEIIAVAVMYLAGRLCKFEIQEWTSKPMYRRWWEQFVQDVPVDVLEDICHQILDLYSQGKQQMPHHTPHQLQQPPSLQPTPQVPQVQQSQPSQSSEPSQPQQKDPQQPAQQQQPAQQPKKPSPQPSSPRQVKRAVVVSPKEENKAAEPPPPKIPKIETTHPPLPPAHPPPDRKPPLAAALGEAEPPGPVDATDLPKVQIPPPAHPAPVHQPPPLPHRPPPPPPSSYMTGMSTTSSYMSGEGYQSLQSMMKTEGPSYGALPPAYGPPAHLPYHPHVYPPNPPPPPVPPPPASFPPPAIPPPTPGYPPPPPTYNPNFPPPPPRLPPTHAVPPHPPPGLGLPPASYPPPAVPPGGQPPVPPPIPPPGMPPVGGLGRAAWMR
CDK7/CycH/MAT1, sequence (P50613 whole entry): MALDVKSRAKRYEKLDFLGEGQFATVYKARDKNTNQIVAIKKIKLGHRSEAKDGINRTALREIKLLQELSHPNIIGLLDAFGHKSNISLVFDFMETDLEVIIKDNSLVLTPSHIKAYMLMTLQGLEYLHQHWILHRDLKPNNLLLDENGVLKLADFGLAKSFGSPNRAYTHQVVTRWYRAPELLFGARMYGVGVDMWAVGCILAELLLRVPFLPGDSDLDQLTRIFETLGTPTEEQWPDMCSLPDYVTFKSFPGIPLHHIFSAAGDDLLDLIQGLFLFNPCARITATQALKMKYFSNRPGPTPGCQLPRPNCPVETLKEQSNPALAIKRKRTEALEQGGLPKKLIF
CDK7/CycH/MAT1, sequence (P51946 whole entry partner): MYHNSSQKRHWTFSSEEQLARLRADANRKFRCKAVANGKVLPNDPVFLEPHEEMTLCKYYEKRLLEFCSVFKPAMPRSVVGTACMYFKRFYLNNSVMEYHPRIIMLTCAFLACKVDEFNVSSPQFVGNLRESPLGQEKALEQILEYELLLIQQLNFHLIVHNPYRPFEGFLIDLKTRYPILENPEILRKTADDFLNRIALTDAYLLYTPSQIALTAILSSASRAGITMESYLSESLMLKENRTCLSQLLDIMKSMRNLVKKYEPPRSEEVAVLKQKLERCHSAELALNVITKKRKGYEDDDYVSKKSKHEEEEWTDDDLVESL
CDK7/CycH/MAT1, sequence (P51948 whole entry partner): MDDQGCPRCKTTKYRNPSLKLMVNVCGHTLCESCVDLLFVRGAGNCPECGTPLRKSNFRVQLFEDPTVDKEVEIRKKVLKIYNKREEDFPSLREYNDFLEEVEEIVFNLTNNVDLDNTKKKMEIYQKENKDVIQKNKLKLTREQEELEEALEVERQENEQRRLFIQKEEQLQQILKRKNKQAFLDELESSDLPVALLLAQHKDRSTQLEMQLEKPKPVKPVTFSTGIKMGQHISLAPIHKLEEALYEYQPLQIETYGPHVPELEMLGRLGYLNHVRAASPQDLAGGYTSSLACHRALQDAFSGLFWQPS

| SMILES | IC50 [1] | IC50 [2] | IC50 [3] |
| --- | --- | --- | --- |
| CCC(=O)Nc1ccc(C(=O)N2CCC[C@@H](Nc3ncc4ccc(OC)cc4n3)C2)cc1 [Example 20, (R)-N-(4-(3-((7-methoxyquinazolin-2-yl)amino)piperidine-1-carbonyl)phenyl)propionamide] | 30000 to 100000 nM | 30000 to 100000 nM | 30000 to 100000 nM |
| CCC(=O)Nc1ccc(C(=O)N2CCC[C@@H](Nc3ncc4ccc(S(C)(=O)=O)cc4n3)C2)cc1 [Example 21, (R)-N-(4-(3-((7-(methylsulfonyl)quinazolin-2-yl)amino)piperidine-1-carbonyl)phenyl)propionamide] | 30000 to 100000 nM | 10000 to 30000 nM | 10000 to 30000 nM |
| CCC(=O)Nc1ccc(C(=O)N2CCC[C@@H](Nc3ncc4ccc(Cl)cc4n3)C2)cc1 [Example 22, (R)-N-(4-(3-((7-chloroquinazolin-2-yl)amino)piperidine-1-carbonyl)phenyl)propionamide] | 30000 to 100000 nM | 30000 to 100000 nM | 30000 to 100000 nM |
| CCC(=O)Nc1ccc(C(=O)N2CCC[C@@H](Nc3ncc4ccc(F)cc4n3)C2)cc1 [Example 23, (R)-N-(4-(3-((7-fluoroquinazolin-2-yl)amino)piperidine-1-carbonyl)phenyl)propionamide] | 30000 to 100000 nM | 30000 to 100000 nM | 30000 to 100000 nM |
| CCC(=O)Nc1ccc(C(=O)N2CCC[C@@H](Nc3ncc4ccc(=O)n(C(C)C)c4n3)C2)cc1 [Example 24, (R)-N-(4-(3-((8-isopropyl-7-oxo-7,8-dihydropyrido[2,3-d]pyrimidin-2-yl)amino)piperidine-1-carbonyl)phenyl)propionamide] | 30000 to 100000 nM | 10000 to 30000 nM | 10000 to 30000 nM |
| C=CC(=O)Nc1ccc(C(=O)N2CC[C@@H](Nc3ncc4cc(OC)ccc4n3)C2)cc1 [Example 29, (R)-N-(4-(3-((6-methoxyquinazolin-2-yl)amino)pyrrolidine-1-carbonyl)phenyl)acrylamide] | 30000 to 100000 nM | 100 to 1000 nM | 10000 to 30000 nM |
| C=CC(=O)Nc1ccc(C(=O)N2CC[C@@H](Nc3ncc4ccc(F)cc4n3)C2)cc1 [Example 35, (R)—N-(4-(3-((7-fluoroquinazolin-2-yl)amino)pyrrolidine-1-carbonyl)phenyl)acrylamide] | 1000 to 10000 nM | ≤ 100 nM | 1000 to 10000 nM |
| C=CC(=O)Nc1ccc(C(=O)N2CC[C@@H](Nc3ncc4ccc(Cl)cc4n3)C2)cc1 [Example 36, (R)—N-(4-(3-((7-chloroquinazolin-2-yl)amino)pyrrolidine-1-carbonyl)phenyl)acrylamide] | 1000 to 10000 nM | 100 to 1000 nM | 100 to 1000 nM |
| C=CC(=O)Nc1ccc(C(=O)N2CC[C@@H](Nc3ncc4ccc(C(=O)N(C)C)cc4n3)C2)cc1 [Example 41, (R)-2-((1-(4-acrylamidobenzoyl)pyrrolidin-3-yl)amino)-N,N-dimethylquinazoline-7-carboxamide] | 1000 to 10000 nM | ≤ 100 nM | 100 to 1000 nM |
| C=CC(=O)Nc1ccc(C(=O)N2CC[C@@H](Nc3ncc4ccc(=O)[nH]c4n3)C2)cc1 [Example 42, (R)—N-(4-(3-((7-oxo-7,8-dihydropyrido[2,3-d]pyrimidin-2-yl)amino)pyrrolidine-1-carbonyl)phenyl)acrylamide] | 1000 to 10000 nM | ≤ 100 nM | 100 to 1000 nM |
| CCC(=O)Nc1ccc(C(=O)N2CC[C@@H](Nc3cc4ccccc4cn3)C2)cc1 [Example 45, (R)—N-(4-(3-(isoquinolin-3-ylamino)pyrrolidine-1-carbonyl)phenyl)propionamide] | 1000 to 10000 nM | 100 to 1000 nM | 1000 to 10000 nM |
| CCC(=O)Nc1ccc(C(=O)N2CC[C@@H](Nc3ncc4cc(F)ccc4n3)C2)cc1 [Example 46, (R)—N-(4-(3-((6-fluoroquinazolin-2-yl)amino)pyrrolidine-1-carbonyl)phenyl)propionamide] | 1000 to 10000 nM | 100 to 1000 nM | 1000 to 10000 nM |
| CCC(=O)Nc1ccc(C(=O)N2CC[C@@H](Nc3ncc4cc(Cl)ccc4n3)C2)cc1 [Example 47, (R)—N-(4-(3-((6-chloroquinazolin-2-yl)amino)pyrrolidine-1-carbonyl)phenyl)propionamide] | 1000 to 10000 nM | 100 to 1000 nM | 1000 to 10000 nM |
| CCC(=O)Nc1ccc(C(=O)N2CC[C@@H](Nc3ncc4cc(OC)ccc4n3)C2)cc1 [Example 48, (R)—N-(4-(3-((6-methoxyquinazolin-2-yl)amino)pyrrolidine-1-carbonyl)phenyl)propionamide] | 30000 to 100000 nM | 1000 to 10000 nM | 10000 to 30000 nM |
| CCC(=O)Nc1ccc(C(=O)N2CC[C@@H](Nc3ncc4cc(C)ccc4n3)C2)cc1 [Example 49, (R)—N-(4-(3-((6-methylquinazolin-2-yl)amino)pyrrolidine-1-carbonyl)phenyl)propionamide] | 1000 to 10000 nM | 1000 to 10000 nM | 1000 to 10000 nM |
| CCC(=O)Nc1ccc(C(=O)N2CC[C@@H](Nc3ncc4ccncc4n3)C2)cc1 [Example 50, (R)—N-(4-(3-(pyrido[3,4-d]pyrimidin-2-ylamino)pyrrolidine-1-carbonyl)phenyl)propionamide] | 1000 to 10000 nM | 100 to 1000 nM | 1000 to 10000 nM |

Now from value to molecule:

| IC50 [1] | IC50 [2] | IC50 [3] | SMILES |
| --- | --- | --- | --- |
| 1000 to 10000 nM | ≤ 100 nM | 100 to 1000 nM | C=CC(=O)Nc1ccc(C(=O)N2CC[C@@H](Nc3ncc4cc(Cl)ccc4n3)C2)cc1 [Example 25, (R)-N-(4-(3-((6-chloroquinazolin-2-yl)amino)pyrrolidine-1-carbonyl)phenyl)acrylamide] |
| 1000 to 10000 nM | 100 to 1000 nM | 1000 to 10000 nM | C=CC(=O)Nc1ccc(C(=O)N2CC[C@@H](Nc3ncc4cc(C)ccc4n3)C2)cc1 [Example 30, (R)-N-(4-(3-((6-methylquinazolin-2-yl)amino)pyrrolidine-1-carbonyl)phenyl)acrylamide] |
| 1000 to 10000 nM | ≤ 100 nM | 100 to 1000 nM | C=CC(=O)Nc1ccc(C(=O)N2CC[C@@H](Nc3ncc4ccncc4n3)C2)cc1 [Example 31, (R)-N-(4-(3-(pyrido[3,4-d]pyrimidin-2-ylamino)pyrrolidine-1-carbonyl)phenyl)acrylamide] |
| 1000 to 10000 nM | ≤ 100 nM | 100 to 1000 nM | C=CC(=O)Nc1ccc(C(=O)N2CC[C@@H](Nc3ncc4ccc(C)cc4n3)C2)cc1 [Example 32, (R)-N-(4-(3-((7-methylquinazolin-2-yl)amino)pyrrolidine-1-carbonyl)phenyl)acrylamide] |
| 100 to 1000 nM | ≤ 100 nM | ≤ 100 nM | C=CC(=O)Nc1ccc(C(=O)N2CC[C@@H](Nc3ncc4ccc(C(=O)O)cc4n3)C2)cc1 [Example 38, (R)-2-((1-(4-acrylamidobenzoyl)pyrrolidin-3-yl)amino)quinazoline-7-carboxylic Acid] |
| 100 to 1000 nM | ≤ 100 nM | ≤ 100 nM | C=CC(=O)Nc1ccc(C(=O)N2CC[C@@H](Nc3ncc4ccc(C(N)=O)cc4n3)C2)cc1 [Example 39, (R)-2-((1-(4-acrylamidobenzoyl)pyrrolidin-3-yl)amino)quinazoline-7-carboxamide] |
| 100 to 1000 nM | ≤ 100 nM | ≤ 100 nM | C=CC(=O)Nc1ccc(C(=O)N2CC[C@@H](Nc3ncc4ccc(C(=O)NC)cc4n3)C2)cc1 [Example 40, (R)-2-((1-(4-acrylamidobenzoyl)pyrrolidin-3-yl)amino)-N-methylquinazoline-7-carboxamide] |
| 100 to 1000 nM | 100 to 1000 nM | 100 to 1000 nM | CCC(=O)Nc1ccc(C(=O)N2CC[C@@H](Nc3ncc4ccc(OC)cc4n3)C2)cc1 [Example 51, (R)—N-(4-(3-((7-methoxyquinazolin-2-yl)amino)pyrrolidine-1-carbonyl)phenyl)propionamide] |

— patent US11447493B2 (Kinnate Biopharma Inc., priority 2018, dated 2022)
